Converted amounts (≈) assume the structure as drawn. The source made the active and inactive calls.

Series [1] is described as follows: Antioxidant activity assessed as inhibition of AAPH-induced lipid peroxidation at 200 ug/ml after 3 hrs by TBA-MDA test. The format is physicochemical.
Series [2] is described as follows: Antioxidant activity assessed as inhibition of AAPH-induced lipid peroxidation after 3 hrs by TBA-MDA test. The format is physicochemical.
The next series relates to Bacillus spizizenii. Put plainly: Antibacterial activity against Bacillus subtilis ATCC 6633 by broth microdilution method. Type of series: functional. In general terms: Broth dilution looks for growth in wells or tubes with falling amounts of substance.
The subject of the next series is Staphylococcus aureus. Put plainly: Antibacterial activity against Staphylococcus aureus ATCC 6538 by broth microdilution method. The format is functional.
The subject of series [3] is Salmonella enterica subsp. enterica serovar Abony. Put plainly: Antibacterial activity against Salmonella abony NCTC 6017 by broth microdilution method. Type of series: functional.
A further series relates to Escherichia coli. Briefly: Antibacterial activity against Escherichia coli ATCC 8739 by broth microdilution method. The format is functional.
The next series deals with Pseudomonas aeruginosa. Briefly: Antibacterial activity against Pseudomonas aeruginosa ATCC 9027 by broth microdilution method. The format is functional.

As for `Cc1c(C)c2c(c(C)c1O)CCC(C)(C(=O)O)O2` (stereo unspecified) [TROLOX], in series [1], the “inhibition (INH)” value came to 85.61%. Also, the IC50 in series [2] turned out to be 7.74 µg/mL (≈ 30.9 µM).
Turning to `C[C@H]1c2cccc(O)c2C(=O)C2=C(O)[C@]3(O)C(=O)C(C(N)=O)=C(O)[C@@H](N(C)C)[C@@H]3[C@@H](O)[C@@H]21.O` [DOXYCYCLINE], the MIC turned out to be 1.56 µg/mL against Bacillus spizizenii; 0.78 µg/mL against Staphylococcus aureus; 6.25 µg/mL in series [3]; 0.78 µg/mL against Escherichia coli; 12.5 µg/mL against Pseudomonas aeruginosa.
Consider `N=c1n(CC(=O)c2ccccc2)c2ccc([N+](=O)[O-])cc2n1CC(=O)c1ccccc1`, for which the MIC with Bacillus spizizenii amounted to 1000 µg/mL (≈ 2410 µM). For the same compound, the MIC result (in the series on Staphylococcus aureus; in series [3]; in the series on Escherichia coli; with Pseudomonas aeruginosa) was “inactive” in each case. In addition, in series [1], the “inhibition (INH)” value came to 23.43%. Moreover, the IC50 in series [2] is more than 200 µg/mL.
Turning to `O=C(c1ccccc1)c1ccc2c(c1)nc1s/c(=C\c3ccc(F)cc3)c(=O)n12`, the “inhibition (INH)” value in series [1] came out at 90.76%. Further, in series [2], the IC50 is 53.7 µg/mL (≈ 134 µM).
In the case of `Cc1ccc2c(c1)n(CC(=O)c1ccccc1)c(=N)n2CC(=O)c1ccccc1`, the MIC against Bacillus spizizenii and in the series with Staphylococcus aureus was 500 µg/mL (≈ 1300 µM) in each case. For the same compound, the MIC entry (in series [3]; in the series with Escherichia coli; with Pseudomonas aeruginosa) was “inactive” in each case. Besides, the “inhibition (INH)” value in series [1] worked out at 39.26%. The IC50 in series [2] is more than 200 µg/mL.
With `COc1ccccc1/C=c1\sc2nc3cc(C(=O)c4ccccc4)ccc3n2c1=O`, the “inhibition (INH)” value in series [1] is on record as 80.35%. Also, the IC50 in series [2] turned out to be 74.11 µg/mL (≈ 180 µM).
Turning to `O=c1c(O)c(-c2ccc(O)c(O)c2)oc2cc(O)cc(O)c12` [QUERCETIN], the “inhibition (INH)” value in series [1] is 91.12%. For the same compound, in series [2], the IC50 stood at 10.47 µg/mL (≈ 34.6 µM).
For `Cc1ccc2c(c1)n(CCCc1ccccc1)c(=N)n2CCCc1ccccc1`, the MIC worked out at 125 µg/mL (≈ 326 µM) against Bacillus spizizenii, 16 µg/mL (≈ 41.7 µM) against Staphylococcus aureus, 500 µg/mL (≈ 1300 µM) in series [3] and 500 µg/mL (≈ 1300 µM) in the series with Escherichia coli. The MIC result with Pseudomonas aeruginosa was “inactive”. The “inhibition (INH)” value in series [1] is given as 62.15%. Further, the IC50 in series [2] was found to be 144.88 µg/mL (≈ 378 µM).
Regarding `O=C1O[C@H]([C@@H](O)CO)C(O)=C1O` [ASCORBIC ACID], the “inhibition (INH)” value in series [1] was determined as 99.9%. In addition, the concentration for half-maximal inhibition (IC50) in series [2] worked out at 9.12 µg/mL (≈ 51.8 µM).
The corresponding values for `O=C(O)/C=C/c1ccc(O)c(O)c1` [CAFFEIC ACID] are 99.98% and 3.79 µg/mL (≈ 21 µM).
For `CCOC(=O)Cn1c(=N)n(CC(=O)OCC)c2cc(C)ccc21`, the MIC result (with Bacillus spizizenii; in the series on Staphylococcus aureus; in series [3]; with Escherichia coli; in the series on Pseudomonas aeruginosa) was “inactive” throughout. The “inhibition (INH)” value in series [1] is recorded as 55.87%. Also, the IC50 in series [2] amounted to 176.58 µg/mL (≈ 553 µM).
Regarding `O=C(c1ccccc1)c1ccc2c(c1)nc1s/c(=C\c3ccccc3F)c(=O)n12`, in series [1], the “inhibition (INH)” value came out at 75.76%. In addition, the concentration for half-maximal inhibition (IC50) in series [2] worked out at 86.97 µg/mL (≈ 217 µM).
`CCOC(=O)Cn1c(=N)n(CC(=O)OCC)c2cc(C(=O)c3ccccc3)ccc21`: the MIC entry (with Bacillus spizizenii; in the series with Staphylococcus aureus; in series [3]; in the series with Escherichia coli; in the series with Pseudomonas aeruginosa) was “inactive” each time. Further, in series [1], the “inhibition (INH)” value worked out at 74.04%. Also, the IC50 in series [2] worked out at 141.89 µg/mL (≈ 347 µM).
For the compound `O=C(c1ccccc1)c1ccc2c(c1)nc1s/c(=C\c3ccc4c(c3)OCO4)c(=O)n12`, the “inhibition (INH)” value in series [1] is 60.8%. Also, the 50% inhibitory concentration (IC50) in series [2] came out at 85.51 µg/mL (≈ 201 µM).

In general, IC50 refers to the midpoint of a concentration-inhibition curve. The MIC is the smallest concentration in the dilution series that meets the test's criterion for growth inhibition.

Values taken from ChEMBL document CHEMBL3616469, “Synthesis, electronic properties, antioxidant and antibacterial activity of some new benzimidazoles” (Bioorg Med Chem, 2015).
